# Experimental data from EP4796540A2, “N-SULFONAMIDE NITROGEN-CONTAINING FUSED HETEROCYCLIC COMPOUND, AND APPLICATION THEREOF” (priority 2023, dated 2025).
# Key:
# [1] = In vivo pharmacokinetic study in rats; conditions: rat, plasma; SD rats (male), IV 1 mg/kg; read-out: Clint
# Method: 1. Experimental purpose: To test the pharmacokinetics of compounds in SD rats. 2. Experimental instrument and materials: Animal: SD rats (male) Instrument: Intravenous injection: 40% HP-β-CD in water; intragastric administration: 0.2% HPC + 0.5% Tween80 in water. 6 male rats. Fasting treatment was performed in the evening before the administration, with free access to water. During the experiment, the rats were allowed to eat and drink freely, and administered by intravenous injection or gavage. After administration, the animal status was observed, and abnormal behaviors were recorded. Blood was collected via jugular vein puncture at 0.0833, 0.25, 1, 2, 4, 8, and 24 hours after intravenous injection; Blood was collected via jugular vein puncture at 0.25, 0.5, 1, 2, 4, 6, 8, and 24 hours after intragastric administration. 50 µL of plasma sample was taken and added with 500 µL of acetonitrile (containing dexamethasone as an internal standard) to precipitate proteins. The mixture was centrifuged at 4°C and 4000 rpm for 20 minutes, and 300 µL of the supernatant was taken and mixed with 300 µL of Watsons aqueous solution in a 96-well plate. […] Unknown samples were calculated by the standard curve. Pharmacokinetic parameters were calculated by the non-compartmental analysis model of WinNonlin 8.2 software and were presented in a report, including Clint, Cmax, AUC, etc. […]
# [2] = In vivo pharmacokinetic study in mice; conditions: mouse, plasma; CD-1 mice (male), IV 1 mg/kg; read-out: Clint
# Method: 1. Experimental purpose: To test the pharmacokinetics of compounds in CD-1 mice. 2. Experimental instrument and materials: Animals: CD-1 mice (male) Instrument: Intravenous injection: 40% HP-β-CD in water; intragastric administration: 0.2% HPC + 0.5% Tween80 in water. 6 male mice. Fasting treatment was performed in the evening before the administration, with free access to water. During the experiment, the mice were allowed to eat and drink freely, and administered by intravenous injection or gavage. After administration, the animal status was observed, and abnormal behaviors were recorded. Blood was collected from the orbit at 0.0833, 0.25, 1, 2, 4, 8, and 24 hours after intravenous injection, and at 0.25, 0.5, 1, 2, 4, 6, 8, and 24 hours after intragastric administration. 20 µL of plasma sample was taken and added with 250 µL of acetonitrile (containing dexamethasone as an internal standard) to precipitate proteins. The mixture was centrifuged at 4°C and 4000 rpm for 20 minutes, and 180 µL of the supernatant was taken and mixed with 180 µL of an aqueous solution containing 0.1% formic acid in a 96-well plate. […] Unknown samples were calculated by the standard curve. Pharmacokinetic parameters were calculated by the non-compartmental analysis model of WinNonlin 8.2 software and were presented in a report, including Clint, Cmax, AUC, etc. […]
# [3] = tested on: p53 Y220C mutant; experiment: HTRF assay: compounds promoting the binding of p53 Y220C mutant with DNA; assay type: biochemical; conditions: His-tagged p53 Y220C (94-312), biotin-labeled DNA
# Method: Homogeneous time-resolved fluorescence (HTRF) assay was used to measure the reactivation effect of compounds on the p53 Y220C mutant. The recombinant His-tagged p53 Y220C (94-312) used for HTRF assays was expressed in E. coli and purified to the purity of 90% through Ni-NTA column. The biotin-labeled DNA used for HTRF assays was synthesized by Pharmaron Inc, with the specific sequence of 5'-[…]-3' .
# The binding of recombinant His-tagged p53 Y220C protein and biotin-labeled DNA was measured using fluorescence resonance energy transfer (FRET). For FRET assays, binding between p53 mutants and DNA sequences was measured by detecting the fluorescence of the interaction between an anti-His antibody (Cisbio, 61HI2KLA) conjugated to Eu and d2-conjugated streptavidin (Cisbio, 610SADLF) bound to a biotin-labeled DNA molecule. Compounds were prepared into 2 mM stock solutions and serially diluted into 10 concentrations at a 1:3 ratio in DMSO. Each 200-fold working concentration compound was sequentially diluted to 4-fold working concentration. 4 µL of compound solution was transferred line by line to a 384-well assay plate using Echo, containing 2 replicates per column. 4 µL of p53 solution was added to the assay plate. 4 µL of biotin DNA solution was added to the assay plate, and then 4 µL of assay solution (His-Eu antibody and streptavidin-d2) was added to each well of the assay plate. The assay plate was incubated overnight and protected from light. Fluorescence was read on BMG (BMG LRBTECH).
# The ratio of each well was calculated (ratio_665 nm/615 nm-ratio_background). The activity % was calculated as follows: C = (Ave_Ac−Ave_Ba)/(Ave_Dc_Ave_Bd) [formula] R data = (A−Ave_Ba−C*D)/(D−Ave_Bd)*(Ave_Dc−Ave_Bd) [formula] Activity % = R data/Ave_VC*100. [formula] • A: fluorescence intensity of the sample at 665 nm; • D: fluorescence intensity of the sample at 615 nm; • Ba: fluorescence intensity of the plate background at 665 nm; • Bd: fluorescence intensity of the plate background at 615 nm; • Dc: fluorescence intensity of HIS-Eu background at 615 nm; • Ac: fluorescence intensity of streptavidin-d2 background at 665 nm; • VC: DMSO treatment group.
# SC150 was calculated using Graphpad 8.0 to fit the logarithm of activity% and compound concentration to a nonlinear regression (dose response-variable slope). Table 1: Activity of compounds promoting the binding of p53 Y220C mutant with DNA
smiles,measurement,setting,value
"[2H]C([2H])([2H])Oc1nc(C(=O)NS(C)(=O)=O)ccc1NCC#Cc1cc2c(N[C@@H]3CCN(C)C[C@@H]3F)cccn2c1CC(F)(F)F [Cpd-2, 5-((3-(8-(((3S,4R)-3-Fluoro-1-methylpiperidin-4-yl)amino)-3-(2,2,2-trifluoroethyl)indolizin-2-yl)prop-2-yn-1-yl)amino)-6-(methoxy-d3)-N-(methylsulfonyl)picolinamide]",clearance,[1],3.3 mL/min/kg
same,clearance,[2],15 mL/min/kg
same,SC150,[3],0.58 nM
